Where “and” joins values, the source holds several entries; their conditions need not be identical. Equal values may be shown once. Read-outs that look alike come from different tables or passages of the source.
Tests used:
[1] = tested on: SARS2; type: cell-based, SARS-CoV-2; settings: for Percentage Infection Relative to Appropriate DMSO Control: avg background subtraction; for Percentage Inhibition Average 1 μM / Screening data (Relative infection to DMSO controls) Average 1 μM: SARS2, 1 μM; for Screening data (Relative infection to DMSO controls) Average 1 μM / Screening data (Relative infection to DMSO controls) Average 5 μM / Screening data (Relative infection to DMSO controls) Average 10 μM / Screening data (Relative infection to DMSO controls) Average 25 μM / Screening data (Relative infection to DMSO controls) Average 50 μM / Average (relative infection to DMSO over the 5 tested concentrations): 100=DMSO control; for Percentage Inhibition Average 5 μM / Screening data (Relative infection to DMSO controls) Average 5 μM: SARS2, 5 μM; for Percentage Inhibition Average 10 μM / Screening data (Relative infection to DMSO controls) Average 10 μM: SARS2, 10 μM; for Percentage Inhibition Average 25 μM / Screening data (Relative infection to DMSO controls) Average 25 μM: SARS2, 25 μM; for Percentage Inhibition Average 50 μM / Screening data (Relative infection to DMSO controls) Average 50 μM: SARS2, 50 μM; for Average (relative infection to DMSO over the 5 tested concentrations): SARS2, average over 1 to 50 uM
[2] = tested on: cells (nuclei count); settings: for Relative cell count to DMSO controls, Average 1 μM / Relative cell count to DMSO controls, Average 5 μM / Relative cell count to DMSO controls, Average 10 μM / Relative cell count to DMSO controls, Average 25 μM / Relative cell count to DMSO controls, Average 50 μM: toxicity data, 100=DMSO control; for Relative cell count to DMSO controls, Average (for correlation analysis): average value over the 5 tested concentrations (1 to 50 uM)
[3] = average of Exp 1-3 (SMW475, SMW477, SMW478), n 9, 1 uM
[4] = average of Exp 1-3 (SMW475, SMW477, SMW478), n 9, 5 uM
[5] = average of Exp 1-3 (SMW475, SMW477, SMW478), n 9, 10 uM
[6] = average of Exp 1-3 (SMW475, SMW477, SMW478), n 9, 25 uM
[7] = average of Exp 1-3 (SMW475, SMW477, SMW478), n 9, 50 uM

SMILES: CCOc1cccc(CNCCc2ccccc2F)c1OCC(O)CN1CCN(C)CC1 (centres unmarked) [SILCS3]
- Percentage Infection Relative to Appropriate DMSO Control ([1]; 1 uM, Exp 1 (SMW454), single wells): 102.18% and 96.08% and 79.31%
- Percentage Infection Relative to Appropriate DMSO Control ([1]; 5 uM, Exp 1 (SMW454), single wells): 110.38% and 99.87% and 94.40%
- Percentage Infection Relative to Appropriate DMSO Control ([1]; 10 uM, Exp 1 (SMW454), single wells): 98.93% and 87.99% and 82.55%
- Percentage Infection Relative to Appropriate DMSO Control ([1]; 25 uM, Exp 1 (SMW454), single wells): 73.36% and 69.10% and 58.07%
- Percentage Infection Relative to Appropriate DMSO Control ([1]; 50 uM, Exp 1 (SMW454), single wells): 38.76% and 39.55% and 35.10%
- Infection Data, Average, Mean ([1]; Average of Exp 1-3, n 9, 1 uM): 77.07%
- Infection Data, Average, Mean ([1]; Average of Exp 1-3, n 9, 5 uM): 48.45%
- Infection Data, Average, Mean ([1]; Average of Exp 1-3, n 9, 10 uM): 46.02%
- Infection Data, Average, Mean ([1]; Average of Exp 1-3, n 9, 25 uM): 22.24%
- Infection Data, Average, Mean ([1]; Average of Exp 1-3, n 9, 50 uM): 12.53%
- Percentage Infection Relative to Appropriate DMSO Control ([1]; Exp 2 (SMW466), 1 uM): 97.83% and 85.97% and 85.21%
- Percentage Infection Relative to Appropriate DMSO Control ([1]; Exp 2 (SMW466), 5 uM): 25.85% and 18.37% and 25.06%
- Percentage Infection Relative to Appropriate DMSO Control ([1]; Exp 2 (SMW466), 10 uM): 15.71% and 12.38% and 8.39%
- Percentage Infection Relative to Appropriate DMSO Control ([1]; Exp 2 (SMW466), 25 uM): −2.25% and −2.53% and 0.99%
- Percentage Infection Relative to Appropriate DMSO Control ([1]; Exp 2 (SMW466), 50 uM): −2.52% and −3.00% and 0.03%
- Percentage Infection Relative to Appropriate DMSO Control ([1]; Exp 3 (SMW480), 1 uM): 55.68% and 51.29% and 40.12%
- Percentage Infection Relative to Appropriate DMSO Control ([1]; Exp 3 (SMW480), 25 uM): 6.43% and −0.12% and −2.91%
- Percentage Inhibition Average 1 μM [1]: 22.93%
- Screening data (Relative infection to DMSO controls) Average 1 μM [1]: 77.07
- Percentage Inhibition Average 5 μM [1]: 51.55%
- Screening data (Relative infection to DMSO controls) Average 5 μM [1]: 48.45
- Percentage Inhibition Average 10 μM [1]: 53.98%
- Screening data (Relative infection to DMSO controls) Average 10 μM [1]: 46.02
- Percentage Inhibition Average 25 μM [1]: 77.76%
- Screening data (Relative infection to DMSO controls) Average 25 μM [1]: 22.24
- Percentage Inhibition Average 50 μM [1]: 87.47%
- Screening data (Relative infection to DMSO controls) Average 50 μM [1]: 12.53
- Average (relative infection to DMSO over the 5 tested concentrations) [1]: 41.26
- Relative cell count to DMSO controls, Average 1 μM [2]: 114.7
- Relative cell count to DMSO controls, Average 5 μM [2]: 125.56
- Relative cell count to DMSO controls, Average 10 μM [2]: 124.47
- Relative cell count to DMSO controls, Average 25 μM [2]: 117.43
- Relative cell count to DMSO controls, Average 50 μM [2]: 86.97
- Toxicity Data, Average, Mean ([2]; Average of Exp 1-3, n 9, 1 uM): 114.70%
- Toxicity Data, Average, Mean ([2]; Average of Exp 1-3, n 9, 5 uM): 125.56%
- Toxicity Data, Average, Mean ([2]; Average of Exp 1-3, n 9, 10 uM): 124.47%
- Toxicity Data, Average, Mean ([2]; Average of Exp 1-3, n 9, 25 uM): 117.43%
- Toxicity Data, Average, Mean ([2]; Average of Exp 1-3, n 9, 50 uM): 86.97%
- Toxicity Data, nuclei count relative to DMSO controls ([2]; Exp 1 (SMW454), 1 uM): 108.7% and 108.1% and 97.2%
- Toxicity Data, nuclei count relative to DMSO controls ([2]; Exp 1 (SMW454), 5 uM): 105.8% and 104.1% and 93.5%
- Toxicity Data, nuclei count relative to DMSO controls ([2]; Exp 1 (SMW454), 10 uM): 112.5% and 109.3% and 98.7%
- Toxicity Data, nuclei count relative to DMSO controls ([2]; Exp 1 (SMW454), 25 uM): 102.5% and 101.9% and 95.9%
- Toxicity Data, nuclei count relative to DMSO controls ([2]; Exp 1 (SMW454), 50 uM): 93.7% and 93.9% and 95.7%
- Toxicity Data, nuclei count relative to DMSO controls ([2]; Exp 2 (SMW466), 1 uM): 110.2% and 122.4% and 99.6%
- Toxicity Data, nuclei count relative to DMSO controls ([2]; Exp 2 (SMW466), 5 uM): 143.6% and 141.9% and 102.7%
- Toxicity Data, nuclei count relative to DMSO controls ([2]; Exp 2 (SMW466), 10 uM): 139.8% and 146.3% and 105.1%
- Toxicity Data, nuclei count relative to DMSO controls ([2]; Exp 2 (SMW466), 25 uM): 131.0% and 122.3% and 75.1%
- Toxicity Data, nuclei count relative to DMSO controls ([2]; Exp 2 (SMW466), 50 uM): 81.8% and 76.6% and 53.5%
- Toxicity Data, nuclei count relative to DMSO controls ([2]; Exp 3 (SMW480), 1 uM): 131.1% and 136.5% and 118.6%
- Toxicity Data, nuclei count relative to DMSO controls ([2]; Exp 3 (SMW480), 5 uM): 154.5% and 147.8% and 136.1%
- Toxicity Data, nuclei count relative to DMSO controls ([2]; Exp 3 (SMW480), 10 uM): 156.3% and 129.5% and 122.8%
- Toxicity Data, nuclei count relative to DMSO controls ([2]; Exp 3 (SMW480), 25 uM): 157.9% and 155.8% and 114.5%
- Toxicity Data, nuclei count relative to DMSO controls ([2]; Exp 3 (SMW480), 50 uM): 117.7% and 89.8% and 80.0%
- Relative cell count to DMSO controls, Average (for correlation analysis) [2]: 113.83

SMILES: COC(=O)c1csc(CN(CCN(C)C)Cc2ccccc2)c1 [SILCS30]
- SARS2 antiviral activity [1]: decrease in activity
- Percentage Infection Relative to Appropriate DMSO Control with Avg Background Subtraction ([1]; Exp 1 (SMW475), 1 uM, single well): 105.27% and 104.72% and 85.58%
- Percentage Infection Relative to Appropriate DMSO Control with Avg Background Subtraction ([1]; Exp 1 (SMW475), 10 uM, single well): 111.40% and 92.91% and 108.37%
- Percentage Infection Relative to Appropriate DMSO Control with Avg Background Subtraction ([1]; Exp 1 (SMW475), 25 uM, single well): 63.92% and 51.24% and 55.41%
- Percentage Infection Relative to Appropriate DMSO Control with Avg Background Subtraction ([1]; Exp 1 (SMW475), 50 uM, single well): 32.13% and 25.36% and 23.71%
- Percentage Infection Relative to Appropriate DMSO Control with Avg Background Subtraction ([1]; Exp 2 (SMW477), 1 uM, single well): 113.51% and 96.27% and 114.57%
- Percentage Infection Relative to Appropriate DMSO Control with Avg Background Subtraction ([1]; Exp 2 (SMW477), 5 uM, single well): 117.23% and 99.87% and 114.31%
- Percentage Infection Relative to Appropriate DMSO Control with Avg Background Subtraction ([1]; Exp 2 (SMW477), 10 uM, single well): 121.60% and 100.99% and 139.28%
- Percentage Infection Relative to Appropriate DMSO Control with Avg Background Subtraction ([1]; Exp 2 (SMW477), 25 uM, single well): 71.18% and 69.34% and 78.15%
- Percentage Infection Relative to Appropriate DMSO Control with Avg Background Subtraction ([1]; Exp 2 (SMW477), 50 uM, single well): 17.82% and 25.00% and 26.06%
- Percentage Infection Relative to Appropriate DMSO Control with Avg Background Subtraction ([1]; Exp 3 (SMW478), 1 uM, Greiner Celigo plates): 81.75% and 100.71% and 99.49%
- Percentage Infection Relative to Appropriate DMSO Control with Avg Background Subtraction ([1]; Exp 3 (SMW478), 5 uM, Greiner Celigo plates): 89.39% and 93.72% and 82.15%
- Percentage Infection Relative to Appropriate DMSO Control with Avg Background Subtraction ([1]; Exp 3 (SMW478), 10 uM, Greiner Celigo plates): 73.78% and 69.60% and 68.94%
- Percentage Infection Relative to Appropriate DMSO Control with Avg Background Subtraction ([1]; Exp 3 (SMW478), 25 uM, Greiner Celigo plates): 79.03% and 71.83% and 64.72%
- Percentage Inhibition Average 1 μM [1]: −0.21%
- Screening data (Relative infection to DMSO controls) Average 1 μM [1]: 100.21
- Percentage Inhibition Average 5 μM [1]: 15.19%
- Screening data (Relative infection to DMSO controls) Average 5 μM [1]: 84.81
- Percentage Inhibition Average 10 μM [1]: 1.46%
- Screening data (Relative infection to DMSO controls) Average 10 μM [1]: 98.54
- Percentage Inhibition Average 25 μM [1]: 32.80%
- Screening data (Relative infection to DMSO controls) Average 25 μM [1]: 67.20
- Percentage Inhibition Average 50 μM [1]: 75.16%
- Screening data (Relative infection to DMSO controls) Average 50 μM [1]: 24.84
- Average (relative infection to DMSO over the 5 tested concentrations) [1]: 75.12
- Infection Data, Average, Mean [1, 3]: 100.21%
- Infection Data, Average, Mean [1, 4]: 84.81%
- Infection Data, Average, Mean [1, 5]: 98.54%
- Infection Data, Average, Mean [1, 6]: 67.20%
- Infection Data, Average, Mean [1, 7]: 24.84%
- Relative cell count to DMSO controls, Average 1 μM [2]: 108.24
- Relative cell count to DMSO controls, Average 5 μM [2]: 110.62
- Relative cell count to DMSO controls, Average 10 μM [2]: 102.59
- Relative cell count to DMSO controls, Average 25 μM [2]: 104.38
- Relative cell count to DMSO controls, Average 50 μM [2]: 86.57
- Toxicity Data, Average, Mean [2, 3]: 108.24%
- Toxicity Data, Average, Mean [2, 4]: 110.62%
- Toxicity Data, Average, Mean [2, 5]: 102.59%
- Toxicity Data, Average, Mean [2, 6]: 104.38%
- Toxicity Data, Average, Mean [2, 7]: 86.57%
- Relative cell count to DMSO controls, Average (for correlation analysis) [2]: 102.48

From US20240132484A1, “BROAD SPECTRUM ANTIVIRAL COMPOUNDS TARGETING THE SKI COMPLEX” (priority 2020, published 2024)
